Molecules are shown by their SMILES.

Test [1] concerns RBL-2H3 cells. Put plainly: Degranulation assay (β-hexosaminidase release). Type of test: cell-based, Rat.
A short description of test [2]: Disrafter-Liposome Raftophile Assay (D-LRA). The settings on record: 100 μM.
Test [3] concerns influenza virus. Put plainly: Virus budding assay (influenza assay). Type of test: cell-based.
The subject of test [4] is PR8 virus. Put plainly: microbe, parasite or virus in culture. Type of test: cell-based. The note with it: unidentified influenza virus, PR8, MDCK; for inhibition at 3.125 µM: read-out: inhibition of virus replication / infection.
Test [5] has as its system Wild type SV40 viruses. Type of test: cell-based, Simian Virus 40. The settings on record: 15CM, HeLa cells, compared to solvent control.
For test [6], the system named is HIV-1 strain NL4-3. Briefly: microbe, parasite or virus in culture. Type of test: cell-based. The settings on record: Human immunodeficiency virus 1, NL43, HeLa TZM cells, compared to solvent, read-out: inhibition of HIV infection.
Test [7] has as its system vesicular stomatitis virus (VSV). Type of test: cell-based. The note with it: HeLa cells.
Setting [8] is: Rattus norvegicus, RBL-2H3, read-out: inhibition of release of β-hexosaminidase.

On to `Cc1c(C)c2c(c(C)c1O)CC[C@@](C)(CCC[C@H](C)CCC[C@H](C)CCCC(C)C)O2` [Alpha-(+)-tocopherol], for which, in test [1], the “activity in mast cell degranulation assay” value is recorded as “moderately active”.
`CC(C)=CCc1ccc2[nH]c3c(c2c1)C(=O)C(=O)C(C)=C3C[C@@H](C)O` [Compound 21a]: the “disrafting activity (% disrafting)” value in test [2] (perylene as marker) is 47.2%. Also, the inhibition at 100 µM in test [1] (setting [8]) is 46%.
On to `CCCCCCCC1=C(C)C(=O)C(=O)c2c1[nH]c1ccccc21` [Compound 21b], for which the “inhibition in influenza virus budding assay” value in test [3] is reported as “inhibitory”. Further, the inhibition at 25 µM in test [4] (read-out: inhibition of virus replication) was 18.3%.
With `CC1=C(Cc2ccc3[nH]c4c(c3c2)C(=O)C(=O)C(C)=C4CC(C)O)CCC(C)(C)C1` (centres unmarked) [Compound 22a], in test [5], the “inhibition of SV40 infection” value is given as 19%. In addition, the inhibition at 10 µM in test [6] was 15%. In addition, in test [3], the “inhibition in influenza virus budding assay” value is recorded as “inhibitory”. Besides, in test [7], the “inhibitory effect on viral infection in VSV counterscreen” value is “no inhibitory effect on viral infection at all”. In test [4], the inhibition at 3.125 µM turned out to be 24.2%.
Consider `CCCCCCCC1(O)C(C)=C(OC)C(=O)c2c1[nH]c1ccccc21` (centres unmarked) [Compound 22c], for which the inhibition at 10 µM in test [6] was 44%. Moreover, the “inhibition in influenza virus budding assay” value in test [3] was “inhibitory”. Moreover, the inhibition at 50 µM in test [1] (setting [8]) amounted to 12%. Also, the inhibition at 3.125 µM in test [4] amounted to 60.2%.
On to `CCCCCCCc1c(C)c(OC)c(OC)c2c1[nH]c1ccccc12` [Compound 22d], for which the inhibition at 10 µM in test [6] stood at 21%.
Turning to `CCCCCCCc1c(C)c(O)cc2c1[nH]c1ccccc12` [Compound 23d], in test [2] (GS-96 as marker), the “disrafting activity (% disrafting)” value is recorded as -97.3%. Further, in test [6], the inhibition at 10 µM is 20%. For the same compound, in test [1] (setting [8]), the inhibition at 100 µM was found to be 15%.
Consider `CCCCCCCc1c(C)c(OC)cc2c1[nH]c1ccccc12` [Compound 24d], for which, in test [2] (perylene as marker), the “disrafting activity (% disrafting)” value was -98.5%. The “inhibition in influenza virus budding assay” value in test [3] was “inhibitory”. Further, the inhibition at 100 µM in test [4] (read-out: inhibition of virus infection) was determined as 50.9%.
As to `CCCCCCCCCCCCCCCCCCOc1cc2[nH]c3cc(OC)ccc3c2cc1C` [Compound 25d], the “inhibition in influenza virus budding assay” value in test [3] is on record as “inhibitory”. For the same compound, in test [4], the inhibition at 3.125 µM stood at 18.4%.

For the origin of these results see patent US20100063126A1, “Carbazole-Derived Pharmaceutical Compositions” (JadoLabs GmbH, priority 2004, published 2010).
